Like-named read-outs stand apart in the source and are kept apart here.
Experiments:
[1] = biological target: T1, recombinant human ghrelin receptor (HEK293/GRLN) (Homo sapiens, UniProt Q92847); experiment: Ghrelin inverse agonist potency (EC50) with IP-1 (IP-One HTRF) assay; type: cell-based; conditions: IP-1 assay
T1 construct: expressed in transfected cells
How it was run: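 IP-1 accumulation was measured by HTRF (IP1-d2/Tb-cryptate, 620/665 nm read after 1 hour at room temperature) following 1 hour of compound treatment at 37° C. Cells were HEK293 stably expressing human ghrelin receptor, plated a day earlier on Matrigel. Inverse agonist potency was reported as EC50.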

[2] = Metabolic stability in mouse liver microsomes; type: in vitro ADME
How it was run: (§1)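 First, microsomes and compound are preincubated 5 min at 37 °C in pH 7.4 phosphate buffer. Next, an NADPH regenerating system starts the reaction. Then aliquots are quenched cold at 10, 30 and 90 min, centrifuged and analysed by LC-MS/MS.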

[3] = biological target: T2, GHSR-1a (HEK293/GHSR1a cell line) (Homo sapiens, UniProt Q92847); experiment: Ghrelin agonist potency (EC50) with calcium FLIPR assay; type: cell-based
T2 construct: expressed in transfected cells; host or cells: HEK293/GHSR1a cell line
How it was run: (§2)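 The cells were plated a day ahead and loaded with a calcium-sensitive dye. Test compound was then added and incubated 15 min, followed by ghrelin. Antagonist potency was calculated from inhibition of the response to 10 nM ghrelin, and agonist potency from the calcium rise caused by compound alone.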

[4] = Metabolic stability in human liver microsomes; type: in vitro ADME
How it was run: as §1

[5] = biological target: T2, GHSR-1a (HEK293/GHSR1a cell line); experiment: Ghrelin antagonist potency (IC50) with calcium FLIPR assay, ghrelin 10 nM; type: cell-based
How it was run: as §2

[6] = HEK293/GRLN, read-out: Activity EC50 (ghrelin inverse agonist potency)
[7] = HEK293/GHSR1a, read-out: Activity EC50/EMax: EC50 (ghrelin agonist potency)
[8] = HEK293/GHSR1a, ghrelin 10 nM, read-out: Activity IC50 (ghrelin antagonist potency)
[9] = ghrelin inverse agonist potency, read-out: Activity EC50
[10] = ghrelin agonist potency, read-out: Activity EC50/EMax
[11] = ghrelin antagonist potency, read-out: Activity IC50

T1 sequence (Q92847 whole entry): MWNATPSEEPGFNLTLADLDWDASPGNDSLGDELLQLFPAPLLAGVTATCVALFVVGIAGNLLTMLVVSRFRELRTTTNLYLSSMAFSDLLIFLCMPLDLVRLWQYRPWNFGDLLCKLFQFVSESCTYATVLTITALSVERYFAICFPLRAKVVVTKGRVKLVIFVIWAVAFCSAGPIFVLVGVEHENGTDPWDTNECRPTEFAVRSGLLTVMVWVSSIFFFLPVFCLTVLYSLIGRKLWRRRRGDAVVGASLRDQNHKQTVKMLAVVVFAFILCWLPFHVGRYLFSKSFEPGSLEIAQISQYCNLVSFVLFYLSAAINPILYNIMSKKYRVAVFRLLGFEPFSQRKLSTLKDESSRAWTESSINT
T2 sequence (Q92847 whole entry): as above

Row | Compound | EC50 [1, 6] | Metabolic Stability Study M = mouse [2] | EC50 [3, 7] | Metabolic Stability Study H = human [4] | IC50 [5, 8] | EC50 [1, 9] | EC50 [3, 10] | IC50 [5, 11]
1 | COc1cc(S(=O)(=O)Cc2ccc3c(c2)CN(C)C3)ccc1NC(=O)NC(C)c1cccc2ccccc12 (stereo not shown) [H1425, 1-(2-methoxy-4-(((2-methylisoindolin-5-yl)methyl)sulfonyl)phenyl)-3-(1-(naphthalen-1-yl)ethyl)urea] | 1.8 nM | 141.5 µL/min/mg | > 30000 nM | 310.0 µL/min/mg | 8.1 nM | – | – | –
2 | COc1cc(S(=O)(=O)Cc2ccc3c(c2)CN(C)C3)ccc1NC(=O)NC(C)c1ccccc1F (stereo not shown) [H1426, 1-(1-(2-fluorophenyl)ethyl)-3-(2-methoxy-4-(((2-methylisoindolin-5-yl)methyl)sulfonyl)phenyl)urea] | 3.4 nM | 80.6 µL/min/mg | > 30000 nM | 77.3 µL/min/mg | 52.9 nM | – | – | –
3 | COc1cc(S(=O)(=O)Cc2ccc3c(c2)CN(C)C3)ccc1NC(=O)NC(C)c1cccc(Cl)c1Cl (stereo not shown) [H1427, 1-(1-(2,3-dichlorophenyl)ethyl)-3-(2-methoxy-4-(((2-methylisoindolin-5-yl)methyl)sulfonyl)phenyl)urea] | 0.7 nM | 82.1 µL/min/mg | > 30000 nM | 58.8 µL/min/mg | 3.8 nM | – | – | –
4 | COc1cc(S(=O)(=O)Cc2ccc3c(c2)CCN(C)C3)ccc1NC(=O)NC(C)c1cccc(Cl)c1Cl (stereo not shown) [H1428, 1-(1-(2,3-dichlorophenyl)ethyl)-3-(2-methoxy-4-(((2-methyl-1,2,3,4-tetrahydroisoquinolin-6-yl)methyl)sulfonyl)phenyl)urea] | 0.5 nM | 194.8 µL/min/mg | > 30000 nM | 69.3 µL/min/mg | 3.3 nM | – | – | –
5 | CC(NC(=O)Nc1ccc(S(=O)(=O)Cc2ccc3c(c2)CN(C)C3)cc1)c1c(F)cccc1F (stereo not shown) [H1429, 1-(1-(2,6-difluorophenyl)ethyl)-3-(4-(((2-methylisoindolin-5-yl)methyl)sulfonyl)phenyl)urea] | 7.31 nM | 63.6 µL/min/mg | > 30000 nM | 65.2 µL/min/mg | 160 nM | – | – | –
6 | COc1cc(S(=O)(=O)Cc2ccc3c(c2)CC(C)N(C)C3)ccc1NC(=O)NC(C)c1cccc(Cl)c1Cl (stereo not shown) [H1431, 1-(1-(2,3-dichlorophenyl)ethyl)-3-(4-(((2,3-dimethyl-1,2,3,4-tetrahydroisoquinolin-6-yl)methyl)sulfonyl)-2-methoxyphenyl)urea] | 0.657 nM | 135.7 µL/min/mg | > 30000 nM | 99.7 µL/min/mg | 4.54 nM | – | – | –
7 | CC(NC(=O)Nc1ccc(S(=O)(=O)Cc2ccc3c(c2)CNC3)cc1)c1cc(F)cc(F)c1 (stereo not shown) [H1445, 1-(1-(3,5-difluorophenyl)ethyl)-3-(4-((isoindolin-5-ylmethyl)sulfonyl)phenyl)urea] | 3.9 nM | 17.3 µL/min/mg | > 30000 nM | 19.4 µL/min/mg | 23.8 nM | – | – | –
8 | CC(NC(=O)Nc1ccc(S(=O)(=O)Cc2ccc3c(c2)CN(C)C3)cc1)c1cc(F)cc(F)c1 (stereo not shown) [H1446, 1-(1-(3,5-difluorophenyl)ethyl)-3-(4-(((2-methylisoindolin-5-yl)methyl)sulfonyl)phenyl)urea] | 9 nM | 58.5 µL/min/mg | > 30000 nM | 177.6 µL/min/mg | 96.5 nM | – | – | –
9 | Cc1cc(S(=O)(=O)Cc2ccc3c(c2)CN(C)C3)ccc1NC(=O)NC(C)c1ccccc1 (stereo not shown) [H1447, 1-(2-methyl-4-(((2-methylisoindolin-5-yl)methyl)sulfonyl)phenyl)-3-(1-phenylethyl)urea] | 6.5 nM | 42.6 µL/min/mg | > 30000 nM | 72.5 µL/min/mg | 100 nM | – | – | –
10 | COc1cccc(F)c1C(C)NC(=O)Nc1ccc(S(=O)(=O)Cc2ccc3c(c2)CN(C)C3)cc1 (stereo not shown) [H1454, 1-(1-(2-fluoro-6-methoxyphenyl)ethyl)-3-(4-(((2-methylisoindolin-5-yl)methyl)sulfonyl)phenyl)urea] | 6.1 nM | 193.3 µL/min/mg | > 30000 nM | 259.9 µL/min/mg | 31.8 nM | – | – | –
11 | COc1cccc(F)c1C(C)NC(=O)Nc1ccc(S(=O)(=O)Cc2ccc3c(c2)CNC3)cc1 (stereo not shown) [H1455, 1-(1-(2-fluoro-6-methoxyphenyl)ethyl)-3-(4-((isoindolin-5-ylmethyl)sulfonyl)phenyl)urea] | 5.2 nM | 56.9 µL/min/mg | > 30000 nM | 55.5 µL/min/mg | 42.5 nM | – | – | –
12 | CC(NC(=O)Nc1ccc(S(=O)(=O)Cc2ccc3c(c2)CN(C)C3)cc1Cl)c1ccccc1 (stereo not shown) [H1456, 1-(2-chloro-4-(((2-methylisoindolin-5-yl)methyl)sulfonyl)phenyl)-3-(1-phenylethyl)urea] | – | 137.8 µL/min/mg | – | 160.6 µL/min/mg | – | 6.2 nM | > 30000 nM | 109 nM
13 | COC(=O)c1cc(S(=O)(=O)Cc2ccc3c(c2)CNC3)ccc1NC(=O)NC(C)c1ccccc1 (stereo not shown) [H1459, methyl 5-((isoindolin-5-ylmethyl)sulfonyl)-2-(3-(1-phenylethyl)ureido)benzoate] | – | 49.3 µL/min/mg | – | 53.7 µL/min/mg | – | 8.4 nM | > 30000 nM | 11.5 nM
14 | COc1cc(NC(=O)NC(C)c2ccccc2)ccc1S(=O)(=O)Cc1ccc2c(c1)CN(C)C2 (stereo not shown) [H1462, 1-(3-methoxy-4-(((2-methylisoindolin-5-yl)methyl)sulfonyl)phenyl)-3-(1-phenylethyl)urea] | – | 15.8 µL/min/mg | – | 76.1 µL/min/mg | – | 6.24 nM | > 30000 nM | 13.8 nM
15 | COc1cc(S(=O)(=O)Cc2ccc3c(c2)CCNC3)ccc1NC(=O)N[C@@H](C)c1cccc(Cl)c1Cl [H1482, (S)-1-(1-(2,3-dichlorophenyl)ethyl)-3-(2-methoxy-4-(((1,2,3,4-tetrahydroisoquinolin-6-yl)methyl)sulfonyl)phenyl)urea] | – | 12.5 µL/min/mg | – | < 10 µL/min/mg | – | 0.4 nM | > 30000 nM | 0.282 nM
16 | CC(NC(=O)Nc1ccc(S(=O)(=O)Cc2ccc3c(c2)CNC3)cc1C1CC1)c1ccccc1 (stereo not shown) [H1484, 1-(2-cyclopropyl-4-((isoindolin-5-ylmethyl)sulfonyl)phenyl)-3-(1-phenylethyl)urea] | – | 149.3 µL/min/mg | – | 116.7 µL/min/mg | – | 7.1 nM | > 30000 nM | 21.7 nM
17 | CC(NC(=O)Nc1ccc(S(=O)(=O)Cc2ccc3c(c2)CN(C)C3)c(O)c1)c1ccccc1.O=C(O)C(F)(F)F (stereo not shown) [H1487, 1-(3-hydroxy-4-(((2-methylisoindolin-5-yl)methyl)sulfonyl)phenyl)-3-(1-phenylethyl)urea] | – | 16.9 µL/min/mg | – | 26.1 µL/min/mg | – | 5.7 nM | > 30000 nM | 18.7 nM

Source: US10501479B2, “Benzenesulfonyl-asymmetric ureas and medical uses thereof” (HELSINN HEALTHCARE SA, priority 2016, dated 2019)
